From patent publication US20070166547A1, “Use of a layer consisting of hydrophobic linear, or two-dimensional polycyclic aromatics as a barrier layer or an encapsulation and electric components constructed with a layer of this type and comprising organic polymers” (priority 2003, published 2007)

Tests used:
[1] = system: embyronic fibroblasts of mouse NIH-3T3; test: Endocellular pHi of fibroblasts by microspectrofluorimetry (FDA, BCECF-AM); assay type: cell-based; details: for rise of pHi: fibroblasts in an attached spread state; for increase of pHi: 20 minutes
Summary of the method: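 Mouse NIH-3T3 fibroblasts loaded 5 min at 37° C with 5.0 mkM FDA or 2.0 mkM BCECF-AM; medium with 5.0 mM HEPES and 15.0 mM bicarbonate. Excitation 490 nm, emission ratio 535/570 nm averaged over 40-60 cells at 37° C. pHi calibrated by nigericin in high-K+ buffers, pH 6.2-7.6.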

plasma hemostasis = test: Partial activated thromboplastin time (PATT) after intravenous administration; assay type: in vivo, rabbit
Protocol: The investigations were performed on 72 rabbits of the “Chinchilla” breed with a mass of 2.5±0.3 kg, who were administered which solutions of compounds 2, 15, 21, 37 in doses of 15, 30 and 60 mg/kg intravenously. The experiments included the thrombin-test (series No. 7300) and the coagulability-test (series No. 5000) purchased from the scientific-and-production association (SPA) “Renam”, thromboplastin (series No. 240600) and calcium chloride purchased from the SPA “MedioLab”
The static parameters of the blood and plasma coagulation (partial activated thromboplastin time, thrombin time, maximum coagulation activity (test for auto coagulation) were determined using the Behnk Electronic coagulometer (Germany). The operating principle of this instrument is based on the fact that the formed blood clot breaks the contacts of the pulse counter in the flask-pin circuit, said pin permanently oscillating in a vertical plane. The moment of formation of the clot is registered by stopping the stop watch hand.
The measurements were effected at a constant temperature of 37° C. maintained by a temperature control unit.
Compounds 2, 15, 21, 37 according to the invention at a concentration of 15, 30 and 60 mg/kg were introduced to the above experimental animals intravenously, and their blood samples were taken off 15, 30, 60 and 120 minutes after the administration.
The blood plasma samples deprived of thrombocytes obtained as described above in an amount of 0.1 ml were put in a coagulometer flask and heated for 1 minute at 37° C., then 0.1 ml of 0.277% solution of calcium chloride was added and the blood clotting time was registered. The coagulation time T in seconds of the control plasma and plasma obtained after intravenous administration after 15, 30, 60 and 120 minutes were compared.

## Nc1cccc2c(=O)[nH][nH]c(=O)c12.[Na] [Compound 15, sodium salt of 5-amino-benzo[d]-3H-pyridazine-1,4-dione]
[1]; 2.0 mkg/ml
  rise of pHi: 0.10 unit pHi
[1]; 20.0 mkg/ml
  rise of pHi: 0.07 unit pHi
[1]; medium with 10.0% blood serum, 0.02 mkg/ml, suspension
  increase of pHi: do not initiate a change of pH
[1]; medium with 10.0% blood serum, 0.2 mkg/ml, suspension
  increase of pHi: 0.1 unit pH
[1]; medium with 10.0% blood serum, 2.0 mkg/ml, suspension
  increase of pHi: 0.12 unit pH
[1]; medium with 10.0% blood serum, 20.0 mkg/ml, suspension
  increase of pHi: do not initiate a change of pH
[1]; medium without blood serum, 0.02 mkg/ml
  increase of pHi: no effect was found
[1]; medium without blood serum, 0.2 mkg/ml
  increase of pHi: no effect was found
[1]; medium without blood serum, 2.0 mkg/ml
  increase of pHi: 0.08 unit pHi
[1]; medium without blood serum, 20.0 mkg/ml
  increase of pHi: 0.08 unit pHi
[1]; medium without blood serum, 200 mkg/ml
  increase of pHi: no effect was found
[1]; medium without blood serum, 1000 mkg/ml
  increase of pHi: no effect was found
Plasma hemostasis; dose 15.0 mg/kg intravenously
  T, s after 15 minutes (PATT): 37.0 ± 0.1 s
  T, s after 30 minutes (PATT): 37.0 ± 0.2 s
  T, s after 60 minutes (PATT): 36.9 ± 0.1 s
  T, s after 120 minutes (PATT): 37.0 ± 0.3 s
Plasma hemostasis; dose 30.0 mg/kg intravenously
  T, s after 15 minutes (PATT): 32.9 ± 0.8 s
  T, s after 30 minutes (PATT): 32.1 ± 0.1 s
  T, s after 60 minutes (PATT): 32.0 ± 0.2 s
  T, s after 120 minutes (PATT): 32.0 ± 0.1 s
Plasma hemostasis; dose 60.0 mg/kg intravenously
  T, s after 15 minutes (PATT): 32.2 ± 0.1 s
  T, s after 30 minutes (PATT): 32.2 ± 0.1 s
  T, s after 60 minutes (PATT): 32.1 ± 0.2 s
  T, s after 120 minutes (PATT): 32.2 ± 0.1 s
Plasma hemostasis; doses 15.0, 30.0, 60.0 mg/kg
  effect on the PATT (overall): do not affect the PATT
